In publication PMC4865847, “Putative histidine kinase inhibitors with antibacterial effect against multi-drug resistant clinical isolates identified by in vitro and in silico screens” (Scientific Reports, 2016):
Values after ≈ are worked out from the molar mass of the structure shown. Read-outs that look alike come from different tables or passages of the source.

Assays:
E. coli PhoR (PhoR^E) = target: T1, E. coli PhoR (PhoR^E) (Escherichia coli, UniProt P08400); experiment: In vitro autophosphorylation kinase assay with γ-32P-ATP, PhoR^E; type: biochemical; details: for IC50: autophosphorylation, one time point (30 sec), 10% DMSO, read-out: IC50 PhoR^E
T1 construct: The catalytic portion (DHp and CA domain) of E. coli PhoR (PhoR^E); made in house; host or cells: E. coli RIL
Outline: (§1)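 Autophosphorylation, initiated with γ-32P-ATP (0.1 μCi/μl; 0.03–0.06 μM ATP final), quenched with SDS/EDTA sample buffer, resolved by SDS-PAGE and quantified by phosphor-imaging. ≈4 μM kinase, fragments up to 20 mM, pH 8.5 Tris buffer with Mg2+; DMSO-matched ligand-free controls.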

S. pneumoniae WalK = target: T2, S. pneumoniae WalK (Streptococcus pneumoniae, UniProt Q8DPL8); experiment: In vitro autophosphorylation kinase assay with γ-32P-ATP, WalK; type: biochemical; details: for IC50: autophosphorylation, one time point (30 sec), 10% DMSO, read-out: IC50 WalK
T2 construct: WalK (amino acids from 208 to 449); N-terminal His6-3C site of vector pOPINF (own knowledge of the vector); made in house; host or cells: E. coli RIL
Outline: as §1

Staphylococcus aureus = experiment: Antibacterial susceptibility testing (MIC/MBC), S. aureus; type: cell-based; details: Staphylococcus aureus; for MBC: DSM20231, strain DSM 20231, read-out: MBC S. aureus DSM 20231
Procedure: (§2) Minimal inhibitory concentrations (MICs) were determined following a standard double-dilution method. […] For S. pneumoniae MICs were determined by adapting the standard double-dilution method to anaerobic conditions and of this microorganism (use of Todd Hewitt Yeast extract with 200 U/mL of catalase and continuous monitoring of growth).

[1] = test system: Staphylococcus epidermidis; experiment: Antibacterial susceptibility testing (MIC/MBC), S. epidermidis; type: cell-based; details: Staphylococcus epidermidis; for MBC: DSM20044, strain DSM 20044
Procedure: as §2

Escherichia coli = experiment: Antibacterial susceptibility testing (MIC/MBC), E. coli; type: cell-based
Procedure: as §2

Streptococcus suis = experiment: Antibacterial susceptibility testing (MIC), S. suis; type: cell-based; details: Streptococcus suis, read-out: MIC Streptococcus suis 3881/S10, strain 3881/S10
Procedure: (§3) Bacterial strains used in this study for antibacterial susceptibility testing (Table S5) were propagated using standard microbiological procedures. Minimal inhibitory concentrations (MICs) were determined following a standard double-dilution method. MICs were recorded as the lowest concentration of the compound where no visible growth was observed. After plating the dilutions around the MIC or growing them in fresh MH media, minimal bactericidal concentration (MBC) was recorded as the lowest concentration of the compound at which no colonies were formed or no growth was observed, respectively. For S. pneumoniae MICs were determined by adapting the standard double-dilution method to anaerobic conditions and of this microorganism (use of Todd Hewitt Yeast extract with 200 U/mL of catalase and continuous monitoring of growth).

Streptococcus pneumoniae = experiment: Antibacterial susceptibility testing (MIC), S. pneumoniae; type: cell-based; details: strain 49619
Procedure: as §3

Acinetobacter baumannii = experiment: Antibacterial susceptibility testing (MIC), A. baumannii; type: cell-based
Procedure: as §3

[2] = test system: Stenotrophomonas maltophilia; experiment: Antibacterial susceptibility testing (MIC), S. maltophilia; type: cell-based; details: clinical isolate B32/1, read-out: MIC S. maltophilia B32/1
Procedure: as §3

Klebsiella pneumoniae = experiment: Antibacterial susceptibility testing (MIC), K. pneumoniae; type: cell-based; details: for MIC: Klebsiella pneumoniae, ATCC700603, strain ATCC 700603
Procedure: as §3

Pseudomonas aeruginosa = experiment: Antibacterial susceptibility testing (MIC), P. aeruginosa; type: cell-based; details: Pseudomonas aeruginosa, ATCC27853; strain ATCC 27853
Procedure: as §3

Hemolysis assay = type: cell-based; details: human
Procedure: Hemolytic activity against human erythrocytes taken from a healthy donor was measured as previously described. The hemolysis experiments were carried out in accordance with the guidelines of the United Arab Emirates University (UAEU) Research Ethics Review Board. All experimental protocols were approved by the Research Ethics Review Board of UAEU and informed consent was obtained from all donors.

[3] = Solubility in kinase buffer; type: physicochemical; details: kinase buffer with 10% DMSO, pH 8.5, aqueous with cosolvent or surfactant or cyclodextrin, kinetic from dmso stock; kinase buffer in the presence of 10% DMSO; read-out: concentration above which not soluble / reduced solubility in kinase buffer
[4] = 2 mM, 30 sec, compared to negative control
[5] = ATCC reference strain 25293, read-out: MIC S. aureus 25293
[6] = MRSA clinical isolate 127/08, read-out: MIC S. aureus 127/08
[7] = MRSA clinical isolate 145/08, read-out: MIC S. aureus 145/08
[8] = MRSA clinical isolate 274/08, read-out: MIC S. aureus 274/08
[9] = MRSA, MRSA clinical isolate S908, read-out: MIC S. aureus S908
[10] = MRSA, MRSA clinical isolate T4/6, read-out: MIC S. aureus T4/6
[11] = MRSA, MRSA clinical isolate V4180, read-out: MIC S. aureus V4180
[12] = clinical isolate T7/3, read-out: MIC S. epidermidis T7/3
[13] = clinical isolate T37/8, read-out: MIC S. epidermidis T37/8
[14] = clinical isolate T6119, read-out: MIC S. epidermidis T6119
[15] = strain RP62A (biofilm producer), read-out: MIC S. epidermidis RP62A
[16] = strain RP62A/1 (non-biofilm producer), read-out: MIC S. epidermidis RP62A/1
[17] = Escherichia coli, ATCC25276, strain ATCC 25276, read-out: MIC E. coli ATCC 25276
[18] = Escherichia coli, strain CFT 073, read-out: MIC E. coli CFT 073
[19] = MDR clinical isolate NM8, read-out: MIC A. baumannii NM8

T2 sequence (Q8DPL8 208-449): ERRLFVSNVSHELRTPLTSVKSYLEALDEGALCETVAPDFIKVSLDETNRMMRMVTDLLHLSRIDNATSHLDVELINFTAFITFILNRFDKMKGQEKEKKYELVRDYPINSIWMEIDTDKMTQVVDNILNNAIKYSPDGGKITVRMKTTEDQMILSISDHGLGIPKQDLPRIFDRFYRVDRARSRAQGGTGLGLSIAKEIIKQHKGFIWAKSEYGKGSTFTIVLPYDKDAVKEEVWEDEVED
T1 sequence (P08400 210-425): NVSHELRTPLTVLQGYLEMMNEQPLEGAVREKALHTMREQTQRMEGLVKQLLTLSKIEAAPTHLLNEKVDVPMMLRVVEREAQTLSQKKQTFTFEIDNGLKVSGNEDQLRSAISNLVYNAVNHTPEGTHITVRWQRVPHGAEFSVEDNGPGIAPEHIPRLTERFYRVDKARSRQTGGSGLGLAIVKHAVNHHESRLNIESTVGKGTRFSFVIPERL

SMILES | IC50 (E. coli PhoR (PhoR^E)) | IC50 (S. pneumoniae WalK) | MIC (Staphylococcus aureus; [5]) | MBC (Staphylococcus aureus) | MIC (Staphylococcus aureus; [6]) | MIC (Staphylococcus aureus; [7]) | MIC (Staphylococcus aureus; [8]) | MIC (Staphylococcus aureus; [9]) | MIC (Staphylococcus aureus; [10]) | MIC (Staphylococcus aureus; [11]) | MBC [1] | MIC [1, 12] | MIC [1, 13] | MIC [1, 14] | MIC [1, 15] | MIC [1, 16] | MIC (Escherichia coli; [17]) | MIC (Escherichia coli; [18]) | MIC (Streptococcus suis) | MIC (Streptococcus pneumoniae) | other results
Nc1nc(-c2ccccc2Cl)cs1 [F1.6] | > 2000 µM | < 2000 µM | 250 µg/mL (≈ 1190 µM) | 250 µg/mL (≈ 1190 µM) | 250 µg/mL (≈ 1190 µM) | 250 µg/mL (≈ 1190 µM) | 500 µg/mL (≈ 2370 µM) | 500 µg/mL (≈ 2370 µM) | 250 µg/mL (≈ 1190 µM) | > 500 µg/mL | 500 µg/mL (≈ 2370 µM) | 125 µg/mL (≈ 593 µM) | > 500 µg/mL | > 500 µg/mL | > 500 µg/mL | > 500 µg/mL | > 500 µg/mL | > 500 µg/mL | > 500 µg/mL | 256 µg/mL (≈ 1220 µM) | inhibition at 2000 µM (S. pneumoniae WalK; [4]): > 50%; MIC (Staphylococcus aureus; MRSA, summary over strains, read-out: MICs for the MRSA strains and S. aureus 25293): 125 to 500 µg/mL (≈ 593 to 2370 µM); MIC ([1]; summary over clinical isolates, read-out: MICs for S. epidermidis clinical isolates): 125 µg/mL (≈ 593 µM); MIC (Acinetobacter baumannii; [19]): > 500 µg/mL; MIC [2]: > 500 µg/mL; MIC (Klebsiella pneumoniae): > 500 µg/mL; MIC (Pseudomonas aeruginosa): > 500 µg/mL; HC50 (Hemolysis assay): > 500 µg/mL
Nc1nccc(Nc2ccc(Br)cc2)n1 [F1.8] | ≤ 1000 µM | > 2000 µM | 250 µg/mL (≈ 943 µM) | 250 µg/mL (≈ 943 µM) | 250 µg/mL (≈ 943 µM) | 250 µg/mL (≈ 943 µM) | 250 µg/mL (≈ 943 µM) | 250 µg/mL (≈ 943 µM) | 250 µg/mL (≈ 943 µM) | 250 µg/mL (≈ 943 µM) | 125 µg/mL (≈ 471 µM) | 31 µg/mL (≈ 117 µM) | 500 µg/mL (≈ 1890 µM) | 250 µg/mL (≈ 943 µM) | 500 µg/mL (≈ 1890 µM) | 250 µg/mL (≈ 943 µM) | 125 to 250 µg/mL (≈ 471 to 943 µM) | < 250 µg/mL | 250 µg/mL (≈ 943 µM) | 128 µg/mL (≈ 483 µM) | inhibition at 2000 µM (E. coli PhoR (PhoR^E); [4]): > 50%; MIC (Staphylococcus aureus; MRSA, summary over strains, read-out: MICs for the S. aureus reference strains and the MRSA strains): 125 to 250 µg/mL (≈ 471 to 943 µM); MIC ([1]; summary over strains, read-out: MICs for the S. epidermidis strains): 31 to 500 µg/mL (≈ 117 to 1890 µM); MBC (Escherichia coli; Escherichia coli, strain CFT 073, read-out: MBC E. coli CFT 073): 500 µg/mL (≈ 1890 µM); MIC (Escherichia coli; Escherichia coli, summary over E. coli strains, read-out: antibacterial effects (MIC) against E. coli): ≥ 250 µg/mL; MIC E. coli ATCC 25276 (Escherichia coli; strain ATCC 25276): 250 µg/mL (≈ 943 µM); MIC E. coli CFT 073 (Escherichia coli; strain CFT 073): 250 µg/mL (≈ 943 µM); MIC (Acinetobacter baumannii; [19]): 125 µg/mL (≈ 471 µM); MIC (Acinetobacter baumannii; MDR clinical isolate NM35, read-out: MIC A. baumannii NM35): 125 µg/mL (≈ 471 µM); MIC (Acinetobacter baumannii; MDR clinical isolate NM75, read-out: MIC A. baumannii NM75): 250 µg/mL (≈ 943 µM); MIC (Acinetobacter baumannii; MDR clinical isolate NM109, read-out: MIC A. baumannii NM109): 125 µg/mL (≈ 471 µM); MIC (Acinetobacter baumannii; MDR clinical isolate NM124, read-out: MIC A. baumannii NM124): 125 µg/mL (≈ 471 µM); MIC (Acinetobacter baumannii; summary over strains, read-out: MICs for A. baumannii strains): 125 to 250 µg/mL (≈ 471 to 943 µM); MIC [2]: > 500 µg/mL; MIC (Klebsiella pneumoniae): 125 to 250 µg/mL (≈ 471 to 943 µM); MIC K. pneumoniae ATCC700603 (Klebsiella pneumoniae; strain ATCC 700603): 250 µg/mL (≈ 943 µM); MIC (Pseudomonas aeruginosa): 500 µg/mL (≈ 1890 µM); HC50 (Hemolysis assay): > 500 µg/mL; solubility [3]: ≤ 1000 µM
